In DBAASP:
≈ marks a conversion by molar mass, not a printed value. Where “and” joins values, the source holds several entries; their conditions need not be identical. Equal entries are not always repeated. Each block holds one molecule with its values, some of them ahead of it.

What was measured:
Experiment in all cases: ≥ marks a high value that may be exact or a test limit, other limits are often not marked, values filed in µg/mL are converted to µM
[1] = tested on: Candida albicans CGMCC 2.2086
[2] = tested on: Candida parapsilosis CGMCC 2.3989
[3] = tested on: Candida tropicalis CGMCC 2.1975
Escherichia coli 078 = tested on: Escherichia coli 078
Escherichia coli K88 = tested on: Escherichia coli K88
Escherichia coli K99 = tested on: Escherichia coli K99
Escherichia coli UB1005 = tested on: Escherichia coli UB1005
[4] = tested on: Pseudomonas aeruginosa ATCC 27853
[5] = tested on: Salmonella enterica subsp. enterica serovar Pullorum ATCC 7913
[6] = tested on: Salmonella enterica subsp. enterica serovar Typhimurium ATCC 14028
[7] = tested on: Salmonella enterica subsp. enterica serovar Typhimurium C77-31
[8] = tested on: Staphylococcus aureus ATCC 25923
[9] = tested on: Staphylococcus aureus ATCC 43300
[10] = tested on: Staphylococcus epidermidis ATCC 12228
[11] = tested on: Candida albicans NCYC 1467
[12] = tested on: Enterococcus faecalis NCTC 12697
[13] = tested on: Escherichia coli NCTC 10418
[14] = tested on: Klebsiella pneumoniae ATCC 43816
[15] = tested on: Staphylococcus aureus NCTC 10788
[16] = tested on: Staphylococcus aureus NCTC 12493
[17] = tested on: Micrococcus luteus ATCC 49732
Candida albicans = tested on: Candida albicans
[18] = tested on: Bacillus subtilis ATCC 23857
[19] = tested on: Candida albicans ATCC 10231
[20] = tested on: Escherichia coli ATCC 25922
[21] = tested on: Klebsiella aerogenes ATCC 13048
[22] = tested on: Pseudomonas aeruginosa ATCC 9027
[23] = tested on: Staphylococcus aureus ATCC 29737
[24] = tested on: Acinetobacter baumannii ATCC 19606
[25] = tested on: Candida albicans ATCC 90028
[26] = tested on: Cryptococcus neoformans ATCC 208821
[27] = tested on: Klebsiella pneumoniae ATCC 700603

SMILES: CC[C@H](C)[C@H](NC(=O)[C@H](CCCN=C(N)N)NC(=O)[C@H](C)NC(=O)[C@H](C)N)C(=O)N[C@H](C(=O)N[C@@H](CC(C)C)C(=O)N[C@@H](CCCN=C(N)N)C(=O)N[C@@H](CCCN=C(N)N)C(=O)N[C@@H](CCCN=C(N)N)C(=O)N[C@@H](Cc1ccccc1)C(=O)N[C@@H](CCCN=C(N)N)C(N)=O)[C@@H](C)CC [AARIILRRRFR]
- MIC [1]: ≥ 128 µM
- MIC [2]: ≥ 64 µM
- MIC [3]: ≥ 64 µM
- MIC (Escherichia coli 078): 16 µM (≈ 22.8 µg/mL)
- MIC (Escherichia coli K88): 16 µM (≈ 22.8 µg/mL)
- MIC (Escherichia coli K99): 8 µM (≈ 11.4 µg/mL)
- MIC (Escherichia coli UB1005): 16 µM (≈ 22.8 µg/mL)
- MIC [4]: > 128 µM
- MIC [5]: 16 µM (≈ 22.8 µg/mL)
- MIC [6]: 32 µM (≈ 45.7 µg/mL)
- MIC [7]: 8 µM (≈ 11.4 µg/mL)
- MIC [8]: 32 µM (≈ 45.7 µg/mL)
- MIC [9]: 16 µM (≈ 22.8 µg/mL)
- MIC [10]: 16 µM (≈ 22.8 µg/mL)

SMILES: CC[C@H](C)[C@H](NC(=O)[C@H](C)NC(=O)[C@H](CO)NC(=O)[C@@H](NC(=O)[C@@H](NC(=O)[C@H](CCCCN)NC(=O)[C@@H]1CCCN1C(=O)[C@@H](NC(=O)[C@H](CC(C)C)NC(=O)[C@H](CO)NC(=O)[C@H](CC(C)C)NC(=O)[C@@H](N)Cc1ccccc1)[C@@H](C)CC)[C@@H](C)CC)[C@@H](C)CC)C(=O)N[C@@H](CO)C(=O)N[C@@H](C)C(=O)N[C@@H](CC(C)C)C(=O)N[C@H](C(=O)N[C@@H](CC(N)=O)C(=O)N[C@@H](Cc1cnc[nH]1)C(=O)N[C@@H](Cc1ccccc1)C(N)=O)[C@@H](C)CC [FLSLIPKIISAISALINHF]
- MIC [11]: ≥ 32 µM
- MIC [12]: ≥ 32 µM
- MIC [13]: ≥ 512 µM
- MIC [14]: ≥ 512 µM
- MIC [4]: > 512 µM
- MIC [15]: 2 µM (≈ 4.19 µg/mL)
- MIC [16]: ≥ 128 µM

SMILES: CC[C@H](C)[C@H](NC(=O)[C@H](CO)NC(=O)[C@@H]1CCCN1C(=O)[C@H](CC(C)C)NC(=O)[C@H](CC(C)C)NC(=O)[C@H](CO)NC(=O)[C@H](CC(C)C)NC(=O)[C@@H](N)Cc1ccccc1)C(=O)N[C@H](C(=O)N[C@@H](CO)C(=O)NCC(=O)N[C@@H](C)C(=O)N[C@H](C(=O)N[C@@H](CO)C(=O)N[C@@H](CC(C)C)C(=O)N[C@@H](C)C(=O)N[C@@H](CCCCN)C(=O)N[C@@H](CCCCN)C(=O)N[C@@H](CC(C)C)C(N)=O)C(C)C)C(C)C [FLSLLPSIVSGAVSLAKKL]
- MIC [17]: 1.3 µM (≈ 2.53 µg/mL)

SMILES: CC(C)C[C@H](NC(=O)[C@H](CCC(N)=O)NC(=O)[C@H](CCC(N)=O)NC(=O)[C@H](C)NC(=O)CNC(=O)[C@H](C)NC(=O)[C@H](CCCCN)NC(=O)CNC(=O)[C@@H](NC(=O)[C@H](CCC(N)=O)NC(=O)[C@H](CCCCN)NC(=O)[C@H](CCCN=C(N)N)NC(=O)[C@H](CC(C)C)NC(=O)[C@H](Cc1ccc(O)cc1)NC(=O)[C@H](CCCCN)NC(=O)[C@H](C)NC(=O)CNC(=O)[C@H](C)NC(=O)[C@H](CCCCN)NC(=O)[C@H](Cc1ccccc1)NC(=O)[C@H](CC(C)C)NC(=O)[C@H](CO)NC(=O)[C@H](CO)NC(=O)[C@H](Cc1ccccc1)NC(=O)CN)C(C)C)C(N)=O [GFSSLFKAGAKYLRKQVGKAGAQQL]
- MIC [11]: ≥ 64 µM
- MIC [12]: 16 µM (≈ 42.5 µg/mL)
- MIC [13]: 8 µM (≈ 21.2 µg/mL)
- MIC [14]: ≥ 128 µM
- MIC [4]: 16 µM (≈ 42.5 µg/mL)
- MIC [15]: 16 µM (≈ 42.5 µg/mL)
- MIC [16]: ≥ 64 µM

Second part, the molecule after the results:

- MIC [11]: 4 µM (≈ 11.4 µg/mL)
- MIC [12]: ≥ 32 µM
- MIC [13]: 4 µM (≈ 11.4 µg/mL)
- MIC [14]: ≥ 32 µM
- MIC [4]: 8 µM (≈ 22.9 µg/mL)
- MIC [15]: 8 µM (≈ 22.9 µg/mL)
- MIC [16]: 16 µM (≈ 45.8 µg/mL)
SMILES: CC(C)C[C@H](NC(=O)[C@H](C)NC(=O)CNC(=O)[C@H](CCCN=C(N)N)NC(=O)[C@H](CCCN=C(N)N)NC(=O)[C@H](CCCN=C(N)N)NC(=O)[C@H](CCC(N)=O)NC(=O)[C@H](CCCN=C(N)N)NC(=O)[C@H](CCCN=C(N)N)NC(=O)[C@H](CCCCN)NC(=O)[C@H](CCCCN)NC(=O)[C@H](CCCN=C(N)N)NC(=O)CN)C(=O)N[C@@H](Cc1c[nH]c2ccccc12)C(=O)N[C@@H](CCCCN)C(=O)N[C@@H](CO)C(=O)N[C@@H](CC(C)C)C(=O)N[C@@H](CC(C)C)C(=O)N[C@@H](CCCCN)C(=O)N[C@@H](CC(N)=O)C(=O)N[C@H](C(=O)NCC(=O)N[C@@H](CCCCN)C(=O)N[C@@H](C)C(N)=O)C(C)C [GRKKRRQRRRGALWKSLLKNVGKA]

- MIC [1]: 4 µM (≈ 8.78 µg/mL)
- MIC (Candida albicans): 5.66 µM and 4 µM
- MIC [2]: 8 µM (≈ 17.6 µg/mL)
- MIC [3]: 2 µM (≈ 4.39 µg/mL)
SMILES: CC[C@H](C)[C@H](NC(=O)CNC(=O)[C@H](CCCCN)NC(=O)[C@H](Cc1c[nH]c2ccccc12)NC(=O)[C@H](CC(C)C)NC(=O)[C@H](CC(C)C)NC(=O)[C@H](Cc1c[nH]c2ccccc12)NC(=O)[C@H](CCCCN)NC(=O)CNC(=O)[C@@H](NC(=O)[C@@H](N)CCCCN)[C@@H](C)CC)C(=O)N[C@@H](CCCCN)C(=O)N[C@@H](CCCCN)C(=O)N[C@H](C(=O)NCC(=O)N[C@@H](CCCCN)C(=O)N[C@@H](Cc1c[nH]c2ccccc12)C(=O)N[C@@H](CC(C)C)C(N)=O)[C@@H](C)CC [KIGKWLLWKGIKKIGKWL]

- MIC [18]: 4.07 µM (≈ 7.93 µg/mL)
- MIC [19]: > 25.7 µM
- MIC [20]: 6.41 µM (≈ 12.5 µg/mL)
- MIC [21]: 12.8 µM (≈ 25 µg/mL)
- MIC [22]: 3.23 µM (≈ 6.3 µg/mL)
- MIC [23]: 25.7 µM (≈ 50 µg/mL)
SMILES: CC(C)C[C@H](NC(=O)[C@H](CC(C)C)NC(=O)[C@H](CCCCN)NC(=O)[C@H](CCCCN)NC(=O)[C@H](CC(C)C)NC(=O)[C@H](CC(C)C)NC(=O)[C@H](CCCCN)NC(=O)[C@H](CCCCN)NC(=O)[C@H](CC(C)C)NC(=O)[C@H](CC(C)C)NC(=O)[C@H](CCCCN)NC(=O)[C@H](CCCCN)NC(=O)[C@H](CC(C)C)NC(=O)[C@@H](N)CC(C)C)C(=O)N[C@@H](CCCCN)C(=O)N[C@@H](CCCCN)C(N)=O [LLKKLLKKLLKKLLKK]

- MIC [24]: > 22.7 µM
- MIC [25]: 22.7 µM (≈ 32 µg/mL)
- MIC [26]: 22.7 µM (≈ 32 µg/mL)
- MIC [20]: > 22.7 µM
- MIC [27]: > 22.7 µM
- MIC [4]: > 22.7 µM
- MIC [9]: > 22.7 µM
SMILES: NC(=O)C[C@H](N)C(=O)N[C@@H](Cc1cnc[nH]1)C(=O)N[C@@H](Cc1cnc[nH]1)C(=O)N[C@@H](CCCN=C(N)N)C(=O)N[C@@H](CCCN=C(N)N)C(=O)N[C@@H](Cc1cnc[nH]1)C(=O)N[C@@H](Cc1cnc[nH]1)C(=O)N[C@@H](CCCN=C(N)N)C(=O)N[C@@H](CS)C(=O)N[C@@H](CCCN=C(N)N)C(=O)O [NHHRRHHRCR]
